Results reported in patent publication US4201774A, “Novel aminoglycoside derivatives” (Shionogi & Co., Ltd., priority 1977, dated 1980).
In brackets after ≈: the same amount, converted by molar mass.

Experiments:
Proteus mirabilis TB-617 = assay: MIC, Proteus mirabilis TB-617*; format: cell-based; settings: TB617; Proteus mirabilis TB-617, tobramycin resistant strain; read-out: minimum inhibitory concentration (MIC)
[1] = system: Pseudomonas aeruginosa TB-485; assay: MIC, Pseudomonas aeruginosa TB-485*; format: cell-based; settings: TB485; Pseudomonas aeruginosa TB-485, tobramycin resistant strain; read-out: minimum inhibitory concentration (MIC)

In the case of `NC[C@H]1O[C@H](O[C@H]2[C@H](O)[C@@H](O[C@H]3O[C@H](CO)[C@@H](O)[C@H](N)[C@H]3O)[C@H](NCC3(O)CCNC3)C[C@@H]2N)[C@H](N)C[C@@H]1O` (stereo partly shown) [Test compound (2), 1-N-[(3-hydroxypyrrolidin-3-yl)methyl]tobramycin], the MIC (Proteus mirabilis TB-617) is reported as 1.56 µg/mL (≈ 2.75 µM) and the MIC [1] is reported as 3.13 µg/mL (≈ 5.52 µM).

`NC[C@H]1O[C@H](O[C@H]2[C@H](O)[C@@H](O[C@H]3O[C@H](CO)[C@@H](O)[C@H](N)[C@H]3O)[C@H](NCC3(O)CNC3)C[C@@H]2N)[C@H](O)[C@@H](O)[C@@H]1O` [Test compound (3), 1-N-[(3-hydroxyazetidin-3-yl)methyl]kanamycin A] was tested, and the MIC (Proteus mirabilis TB-617) was 6.25 µg/mL (≈ 11 µM) and the MIC [1] was 6.25 µg/mL (≈ 11 µM).

`NC[C@H]1O[C@H](O[C@H]2[C@H](O)[C@@H](O[C@H]3O[C@H](CO)[C@@H](O)[C@H](N)[C@H]3O)[C@H](NCC3(O)CCNC3)C[C@@H]2N)[C@H](O)[C@@H](O)[C@@H]1O` (stereo partly shown) [Test compound (4), 1-N-[(3-hydroxypyrrolidin-3-yl)methyl]kanamycin A] was tested, and the MIC (Proteus mirabilis TB-617) was 3.13 µg/mL (≈ 5.36 µM) and the MIC [1] was 6.25 µg/mL (≈ 10.7 µM).

In the case of `NC[C@H]1O[C@H](O[C@H]2[C@H](O)[C@@H](O[C@H]3O[C@H](CO)[C@@H](O)[C@H](N)[C@H]3O)[C@H](N)C[C@@H]2N)[C@H](N)C[C@@H]1O` [Test compound (5), tobramycin, reference compound], the MIC (Proteus mirabilis TB-617) is reported as 6.25 µg/mL (≈ 13.4 µM) and the MIC [1] is reported as 25 µg/mL (≈ 53.5 µM).

For `NC[C@H]1O[C@H](O[C@H]2[C@H](O)[C@@H](O[C@H]3O[C@H](CO)[C@@H](O)[C@H](N)[C@H]3O)[C@H](NCC3(O)CNC3)C[C@@H]2N)[C@H](N)C[C@@H]1O` [Test compound (1), 1-N-[(3-hydroxyazetidin-3-yl)methyl]tobramycin], the MIC (Proteus mirabilis TB-617) was 1.56 µg/mL (≈ 2.82 µM) and the MIC [1] was 6.25 µg/mL (≈ 11.3 µM).
